# Source: publication PMC3337729 (Anesthesiology, 2011)
# What was measured:
# [1] = target: T1, Complex I (NADH-ubiquinone oxidoreductase) (Rattus norvegicus, UniProt A6K8N6+P03889+Q5XIH3+Q641Y2); experiment: rotenone-sensitive NADH oxidation, absorbance at […] nm; format: biochemical; details: 0.2 mM NADH, antimycin A present
# [2] = target: T1, Complex I (NADH-ubiquinone oxidoreductase); experiment: as above; format: biochemical; details: read-out: % of control activity at 0.5 mM
smiles,measurement,setting,value
CCCCCCCCCCC1=C(C)C(=O)C(OC)=C(OC)C1=O [decylubiquinone],"rotenone-sensitive NADH oxidation, absorbance at 340 nm",[1]; decylubiquinone printed as 75 mM,rotenone-sensitive reduction of NADH absorbance using decylubiquinone as acceptor
FC(F)OC(Cl)C(F)(F)F (stereo not drawn) [isoflurane],remaining activity at 500 µM,[2],86 ± 5%
NC(=O)C1=CN([C@@H]2O[C@H](COP(=O)(O)OP(=O)(O)OC[C@H]3O[C@@H](n4cnc5c(N)ncnc54)[C@H](O)[C@@H]3O)[C@@H](O)[C@H]2O)C=CC1 [NADH],"rotenone-sensitive NADH oxidation, absorbance at 340 nm",[1]; decylubiquinone acceptor,Complex I activity was determined by the rotenone-sensitive reduction of NADH absorbance using decylubiquinone
